Test results: patent publication US9107415B2, “2-(substituted-phenyl)-cyclopentane-1,3-dione compounds, and derivatives thereof” (Syngenta Limited, priority 2011, dated 2015)

Tests used:
Format in all cases: in vivo
[1] = system: Alopecurus myosuroides (ALOMY); assay: Biological Example 1 glasshouse screen, post-emergence herbicidal activity; conditions: 312 h, read-out: ALOMY percentage phytotoxicity
In short: (§1)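 Phytotoxicity was scored visually as % damage (100 = total, 0 = none) 13 days after spraying. Spray was acetone/water (50:50) with 0.5% Tween 20, applied to soil-sown pots 1 day (pre-emergence) or 8 days (post-emergence) after sowing. Glasshouse at 24/16°C, 14 h light, 65% humidity.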

[2] = system: Echinochloa crus-galli (ECHCG); assay: as above; conditions: 312 h, read-out: ECHCG percentage phytotoxicity
In short: as §1

Avena fatua (AVEFA) [3] = assay: as above; conditions: 312 h, read-out: AVEFA percentage phytotoxicity
In short: (§2)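 Pots in a glasshouse (24/16°C day/night, 14 h light, 65% humidity) were sprayed one day after sowing (pre-emergence) or after 8 days (post-emergence), using acetone/water (50:50) with 0.5% Tween 20. Phytotoxicity was scored visually as % damage (0-100) 13 days after application.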

Lolium perenne (LOLPE) = assay: as above; conditions: 312 h, read-out: LOLPE percentage phytotoxicity
In short: as §2

[4] = system: Alopecurus myosuroides (ALOMY); assay: Biological Example 4A (previously-formulated compounds) post-emergence herbicidal activity on grassy weeds; conditions: 14 DAA, EC formulation, mean of two
Protocol: (§3) Seeds of a variety of test species are sown in standard soil in pots. After cultivation for 14 days under controlled conditions in a glasshouse (at 22/16°C., day/night; 16 hours light; 65% humidity), the plants are sprayed with the test compounds. The test plants are then grown on under controlled conditions in the glasshouse (at 22/16°C., day/night; 16 hours light; 65% humidity) and are watered twice daily. After 14 days the test is evaluated visually (100%=total damage to plant; 0%=no damage to plant). Post-emergence herbicidal activity (phytotoxicity) data, on certain grassy monocotyledonous weeds and cereal crops in a glasshouse, are measured 14 days after application of the herbicide (14 DAA), inter alia for post-emergence application rates of 30 or 60 g/ha of the test herbicide, with or without 50 g/ha of cloquintocet-mexyl safener applied at substantially the same time as the herbicide.
(§4) Herbicidal activity (phytotoxicity) is evaluated visually, and an assessed percentage phytotoxicity score is given for each herbicidal application on each plant species (with 100%=total damage to plant; 0%=no damage to plant). Two repetitions are made for each experiment and the mean herbicidal activity (phytotoxicity) data is reported.
(§5) Biological Example 4A is used on previously-formulated compounds, typically compounds previously formulated as an emulsifiable concentrates (EC), wherein the EC contains the herbicidal compound under test dissolved in one or more organic solvents, and wherein the EC also contains one or more surfactants or emulsifiers. In the test method, the EC containing the herbicide (plus a cloquintocet-mexyl formulation if this is also present) is generally diluted with water to form an emulsion, and the resulting emulsion is sprayed onto the emerged weed and/or crop plants.
(§6) For the testing of Compounds A-5 and A-6, each of these compounds was separately formulated into an emulsifiable concentrate containing 10% w/w of the herbicidal compound, 9% w/w of castor oil ethoxylate (an emulsifier, present as Emulsogen™EL360), 6% w/w of calcium dodecylbenzenesulfonate (linear) (an emulsifier, present as Nansa™EVM 63B), 3% w/w of tristyrylphenol ethoxylate having 16 moles of ethoxylation per mole of molecule (an emulsifier, present as Soprophor™BSU), 10% w/w of benzyl benzoate (as solvent), 20% w/w of 1-methyl-2-pyrrolidone (as solvent), and the remainder of N-octyl-2-pyrrolidone (as solvent). The solvents and surfactants/emulsifiers were first mixed together, to form a “blank” EC, and the herbicidal compound was then added to and dissolved in this solvent and emulsifier mixture to prepare the emulsifiable concentrate, to give an EC formulation/composition containing approximately 100 g/L of active herbicidal compound.
(§7) In the tests of Compounds A-5 and A-6, the cloquintocet-mexyl was pre-formulated as a formulation/composition containing 10% w/w cloquintocet-mexyl, 6% w/w Emulsogen™ EL360 (as emulsifier), 4% w/w Nansa™EVM 63B (as wetting agent), 1% w/w Drapex™39 (epoxidised soybean oil), 20% w/w 1-methyl-2-pyrrolidone (as solvent), and the remainder as Solvesso™200ND (a mixture of heavy aromatic hydrocarbons, as a solvent).
(§8) Test plants: Avena fatua (AVEFA), Lolium multiflorum (LOLMU), Setaria viridis (SETVI), Poa annua (POAAN), Alopecurus myosuroides (ALOMY). All five of these are grassy monocotyledonous weeds.

Avena fatua (AVEFA) [5] = assay: as above; conditions: 14 DAA, EC formulation, mean of two
Protocol: as §3, §4, §5, §6, §7, §8

[6] = system: Lolium multiflorum (LOLMU); assay: as above; conditions: 14 DAA, EC formulation, mean of two
Protocol: as §3, §4, §5, §6, §7, §8

Poa annua (POAAN) = assay: as above; conditions: 14 DAA, EC formulation, mean of two
Protocol: as §3, §4, §5, §6, §7, §8

Setaria viridis (SETVI) = assay: as above; conditions: 14 DAA, EC formulation, mean of two
Protocol: as §3, §4, §5, §6, §7, §8

[7] = system: Spring Barley “Harrington”; assay: Biological Example 4A post-emergence phytotoxicity on cereal crops; conditions: 14 DAA, EC formulation, mean of two
Protocol: as §3, §4, §5, §6, §7

Spring Wheat “Teal” = assay: as above; conditions: 14 DAA, EC formulation, mean of two
Protocol: as §3, §4, §5, §6, §7

Winter Barley “Suzuka” = assay: as above; conditions: 14 DAA, EC formulation, mean of two
Protocol: as §3, §4, §5, §6, §7

Winter Wheat “Hereward” = assay: as above; conditions: 14 DAA, EC formulation, mean of two
Protocol: as §3, §4, §5, §6, §7

[8] = system: grassy monocotyledonous weeds such as Lolium, Alopecurus, Echinochloa and/or Avena; assay: Post-emergence herbicidal activity on grassy monocotyledonous weeds, summary statements (Biological Examples 1 to 4)
[9] = 30 g/ha, cloquintocet-mexyl 0 g/ha
[10] = 30 g/ha, cloquintocet-mexyl 50 g/ha
[11] = 60 g/ha, cloquintocet-mexyl 0 g/ha
[12] = 60 g/ha, cloquintocet-mexyl 50 g/ha

`CC#Cc1cc(C)c(C2C(=O)C[C@@H](Cc3ccccn3)C2=O)c(C)c1` (some centres unmarked) [Compound A-6] was tested, and the pest or weed control at 250 g/ha [1] was 100%, the pest or weed control at 250 g/ha [2] was 100% and the pest or weed control at 250 g/ha (Avena fatua (AVEFA) [3]) was 100%. It also gave a pest or weed control at 250 g/ha (Lolium perenne (LOLPE)) of 100%, an ALOMY % phytotoxicity [4, 9] of 100% and an ALOMY % phytotoxicity [4, 10] of 100%. The ALOMY % phytotoxicity [4, 11] was 100%, the ALOMY % phytotoxicity [4, 12] was 100% and the AVEFA % phytotoxicity (Avena fatua (AVEFA) [5]; [9]) was 98%. It also gave an AVEFA % phytotoxicity (Avena fatua (AVEFA) [5]; [10]) of 90%, an AVEFA % phytotoxicity (Avena fatua (AVEFA) [5]; [11]) of 100% and an AVEFA % phytotoxicity (Avena fatua (AVEFA) [5]; [12]) of 99%. The LOLMU % phytotoxicity [6, 9] was 100%, the LOLMU % phytotoxicity [6, 10] was 100% and the LOLMU % phytotoxicity [6, 11] was 100%. The LOLMU % phytotoxicity [6, 12] was 100%, the POAAN % phytotoxicity (Poa annua (POAAN); [9]) was 65% and the POAAN % phytotoxicity (Poa annua (POAAN); [10]) was 48%. The POAAN % phytotoxicity (Poa annua (POAAN); [11]) was 94%, the POAAN % phytotoxicity (Poa annua (POAAN); [12]) was 85% and the SETVI % phytotoxicity (Setaria viridis (SETVI); [9]) was 100%. The SETVI % phytotoxicity (Setaria viridis (SETVI); [10]) was 100%, the SETVI % phytotoxicity (Setaria viridis (SETVI); [11]) was 100% and the SETVI % phytotoxicity (Setaria viridis (SETVI); [12]) was 100%. The “Spring Barley “Harrington” phytotoxicity (%)” value [7, 9] was 95%, the “Spring Barley “Harrington” phytotoxicity (%)” value [7, 10] was 13% and the “Spring Barley “Harrington” phytotoxicity (%)” value [7, 11] was 98%. For the same compound, the “Spring Barley “Harrington” phytotoxicity (%)” value [7, 12] was 48%, the “Spring Wheat “Teal” phytotoxicity (%)” value (Spring Wheat “Teal”; [9]) was 78% and the “Spring Wheat “Teal” phytotoxicity (%)” value (Spring Wheat “Teal”; [10]) was 25%. For the same compound, the “Spring Wheat “Teal” phytotoxicity (%)” value (Spring Wheat “Teal”; [11]) was 94%, the “Spring Wheat “Teal” phytotoxicity (%)” value (Spring Wheat “Teal”; [12]) was 45% and the “Winter Barley “Suzuka” phytotoxicity (%)” value (Winter Barley “Suzuka”; [9]) was 93%. For the same compound, the “Winter Barley “Suzuka” phytotoxicity (%)” value (Winter Barley “Suzuka”; [10]) was 10%, the “Winter Barley “Suzuka” phytotoxicity (%)” value (Winter Barley “Suzuka”; [11]) was 98% and the “Winter Barley “Suzuka” phytotoxicity (%)” value (Winter Barley “Suzuka”; [12]) was 25%. For the same compound, the “Winter Wheat “Hereward” phytotoxicity (%)” value (Winter Wheat “Hereward”; [9]) was 65%, the “Winter Wheat “Hereward” phytotoxicity (%)” value (Winter Wheat “Hereward”; [10]) was 15% and the “Winter Wheat “Hereward” phytotoxicity (%)” value (Winter Wheat “Hereward”; [11]) was 80%. The “Winter Wheat “Hereward” phytotoxicity (%)” value (Winter Wheat “Hereward”; [12]) was 20% and the “post-emergence herbicidal activity against grassy monocotyledonous weeds, in words” value [8] was “more potent herbicidal activity”.
